Values of other authors as cited in patent US20260114445A1, “STABLE ANTIMICROBIAL FORMULATION CONCENTRATE” (Kimberly-Clark Worldwide, Inc., priority 2020, published 2026).

Conditions: temperature not given

water solubility: approximately 0.14%
SMILES: CCCCCCCC(=O)NO [Caprylhydroxamic Acid]
